A short description of this data set: acid dissociation constant (pKa) by conventional titration.

Where two headings read alike, the source gives them in different places.

As usually defined, the pKa is the negative logarithm of the acid dissociation constant.

As to `CN1C(C)(C)CC(OC(=O)CC(C(=O)OC2CC(C)(C)N(C)C(C)(C)C2)C(CC(=O)OC2CC(C)(C)N(C)C(C)(C)C2)C(=O)OC2CC(C)(C)N(C)C(C)(C)C2)CC1(C)C` [Example D-2, tetrakis(1,2,2,6,6-pentamethyl-4-piperidyl) 1,2,3,4-butanetetracarboxylate], the pKa came to 8.9.
Same read-out and setting: in the case of `CC1(C)CC(OC(=O)CCCCCCCCC(=O)OC2CC(C)(C)NC(C)(C)C2)CC(C)(C)N1` [Example D-3, Bis(2,2,6,6-tetramethyl-4-piperidyl) sebacate] it was 9; in that of `CCCCCCCCON1C(C)(C)CC(OC(=O)CCCCCCCCC(=O)OC2CC(C)(C)N(OCCCCCCCC)C(C)(C)C2)CC1(C)C` [Example D-4, Bis(1-octyloxy-2,2,6,6-tetramethylpiperidin-4-yl) sebacate], 4.4.
For the setting “acid dissociation constant of hindered amine light stabilizer”, “Condensate of N,N-bis(3-aminopropyl)ethylenediamine. 2,4-bis[N-butyl-N-(1,2,2,6,6-pentamethyl-4-pi peridyl)amino]-6-chloro-1,3,5-triazine [Example D-5]” gave a pKa of 9.2.

The values are drawn from patent US20100190878A1, “POLYOLEFIN RESIN COMPOSITION AND FOAM MOLDED ARTICLE” (SUMITOMO CHEMICAL COMPANY, LIMITED, priority 2008, published 2010).
